Patent US10098888B2, “Substituted benzene compounds” (Epizyme, Inc., priority 2012, dated 2018)
Read-outs that look alike come from different tables or passages of the source.

Assays:
[1] = test system: CYP3A4/5; experiment: Time-Dependent Inactivation (TDI) assessment of CYP3A4/5; type: in vitro ADME, human; settings: for inactivation of CYP3A4/5 (conclusion in words): using midazolam as probe
[2] = test system: Karpas-422 xenograft; experiment: Efficacy study in Karpas-422 xenograft model; type: in vivo; settings: mice, p.o. BID, up to 28 days
Method: (§1) The animals were fed ad libitum water (reverse osmosis 1 ppm Cl) and NIH 31 Modified and Irradiated Lab Diet® consisting of 18.0% crude protein, 5.0% crude fat, and 5.0% crude fiber. The mice were housed on irradiated Enrich-o'cobs™ bedding in static microisolators on a 12-hour light cycle at 20-22° C. (68-72° F.) and 40-60% humidity. Alf procedures complied with the recommendations of the Guide for Care and Use of Laboratory Animals with respect to restraint, husbandry, surgical procedures, feed and fluid regulation, and veterinary care.
Human lymphoma cell lines line were obtained from different sources (ATCC, DSMZ), e.g., Karpas-422 obtained from DSMZ. […]
Human lymphoma cell lines, e.g., Karpas-422 cells, were harvested during mid-log phase growth, and re-suspended in […] base media and 50% Matrigel™ (BD Biosciences) (RPMI:Matrigel=1:1). […] Tumor size, in mm^3, was calculated from: […]
(§2) Mice were treated at compound doses ranging from 62.5-500 mg/kg on a BID (2 times a day every 12 h) schedule for various amounts of days by oral gavage. Each dose was delivered in a volume of 0.2 mL/20 g mouse (10 mL/kg), and adjusted for the last recorded weight of individual animals. […]
Treatment efficacy was determined on the last treatment day, MTV(n), the median tumor volume for the number of animals, n, evaluable on the last day, was determined for each group. […]

[3] = Tolerability in Karpas-422 xenograft tumor bearing mice (body weight); type: in vivo; settings: Karpas-422 xenograft mice, p.o. BID, up to 28 days
Method: as §1
Test compounds were stored at room temperature and protected from light. On each treatment day, fresh compound formulations were prepared by suspending the powders in 0.5% sodium carboxymethylcellulose (NaCMC) and 0.1% Tween® 80 in deionized water. […]
as §2
In order to test whether a compound could induce an anti-tumor effect in vivo, Karpas-422 xenograft tumor bearing mice were treated with a compound at, e.g., 62.5, 125, 250, or 500 mg/kg BID for 28 days. […] The tumor growth over the treatment course of 28 days for vehicle and test compound treated groups was measured.

[4] = test system: CYP1A; experiment: CYP induction in cryopreserved human hepatocytes, CYP1A; settings: 48 hours, positive control β-naphthoflavone
[5] = test system: CYP2B6; experiment: CYP induction in cryopreserved human hepatocytes, CYP2B6; settings: 1 μm, 48 hours, positive control phenobarbital
[6] = test system: human cytochromes P450 (CYP); experiment: Assessment of CYP inhibition, overall conclusion on reversible inhibition; settings: human liver microsomes
[7] = test system: WSU-DLCL2 cells; experiment: Cell Proliferation Analysis (WSU-DLCL2, Cell Titer Glo); type: cell-based; settings: Homo sapiens, WSUDLCL2, 6 days
[8] = pH 7.4, probe testosterone, time-dependent inactivation of CYP3A4/5, human liver microsomes, read-out: KI

| Structure (SMILES) | Ki ([1]; human, human liver microsomes, pH 7.4, time-dependent inactivation of CYP3A4/5, footnote ** not given, read-out: KI (value in parentheses marked **)) [µM] | Ki [1, 8] [µM] | inactivation of CYP3A4/5 (conclusion in words) [1] | antitumor effect in Karpas-422 xenograft model [2] | tolerability [3] | CYP1A % Positive Control ([4]; 1 μm) [%] | CYP1A % Positive Control ([4]; 10 μm) [%] | CYP2B6 % Positive Control [5] [%] | reversible CYP inhibition (conclusion in words) [6] | IC50 [7] [µM] |
| --- | --- | --- | --- | --- | --- | --- | --- | --- | --- | --- |
| CCN(c1cc(-c2ccc(OCCOC)cc2)cc(C(=O)NCc2c(C)cc(C)[nH]c2=O)c1C)[C@H]1CC[C@H](N(C)C)CC1 [Compound 1, N-((4,6-dimethyl-2-oxo-1,2-dihydropyridin-3-yl)methyl)-5-(((trans)-4-(dimethytamino)-cyclohexyl)(ethyl)-amino)-4′-(2-methoxyethoxy)-4-methyl-[1,1′-biphenyl]-3-carboxamide] | 3.3 | 6.4 | time-, concentration-, and NADPII-dependent inactivation of CYP3A4/5 | tumor stasis and regression | well tolerated | 2.8 | 3.0 | 18.0 | no significant reversible inhibition | – |
| CCN(c1cc(C#CCN2CCOCC2)cc(C(=O)NCc2c(C)cc(C)[nH]c2=O)c1C)[C@H]1CC[C@H](N(C)CCOC)CC1 [Compound 2, N-((4,6-dimethyl-2-oxo-1,2-dihydropyridin-3-yl)methyl)-3-(ethyl((trans)-4-((2-methoxyethyl)(methyl)amino)cyclohexyl)amino)-2-methyl-5-(3-morpholinoprop-1-yn-1-yl)benzamide] | – | 22.3 | time-, concentration-, and NADPII-dependent inactivation of CYP3A4/5 | – | – | – | – | – | no significant reversible inhibition | 0.385 |
| CCN(c1cc(C#CC2CCN(C)CC2)cc(C(=O)NCc2c(C)cc(C)[nH]c2=O)c1C)C1CCOCC1 [Compound 105, N-((4,6-Dimethyl-2-oxo-1,2-dihydropyridin-3-yl)methyl)-3-(ethyl(tetrahydro-2H-pyran-4-yl)amino)-2-methyl-5-((1-methylpiperidin-4-yl)ethynyl)benzamide] | – | 10.2 | time-, concentration-, and NADPII-dependent inactivation of CYP3A4/5 | – | – | 3.0 | 4.4 | – | potentially significant inhibition of CYP2D6 and CYP3A4 (midazolam) | – |
